Laboratory results from ChEMBL document CHEMBL3988442, “University of Dundee, Small-Polar-MMV Screening Library” (2021).

How the values were obtained:
[1] = In vitro enzyme assay to detect hydrolysis of chlorophenol red-beta-D-[…] directly proportional to the number of Toxoplasma stably expressing beta-galactosidase; type: functional, organism-based, Toxoplasma gondii; details: Toxoplasma gondii
[2] = microbe, parasite or virus in culture; details: Mycobacterium tuberculosis, 72 h, read-out: pIC50 (converted)
Schistosoma mansoni = experiment: High throughput screening of compounds against Schistosoma mansoni motility; type: functional; set-up: dose or concentration left out as unconfirmed
[3] = microbe, parasite or virus in culture; details: Mycobacterium tuberculosis, 96 h, read-out: pIC50 (converted)
ClpP1P2 = ClpP1P2 (Mycobacterium tuberculosis (strain ATCC 25618 / H37Rv), UniProt P9WPC3+P9WPC5); experiment: in vitro assay to detect presence of AMC directly proportional to the activity of ClpP1P2. GHDDI collaboration.; type: functional
Plasmodium falciparum = experiment: Calibr Malaria Delayed Death Assay SOP; type: functional, organism-based

ClpP1P2, sequence (P9WPC5 whole entry): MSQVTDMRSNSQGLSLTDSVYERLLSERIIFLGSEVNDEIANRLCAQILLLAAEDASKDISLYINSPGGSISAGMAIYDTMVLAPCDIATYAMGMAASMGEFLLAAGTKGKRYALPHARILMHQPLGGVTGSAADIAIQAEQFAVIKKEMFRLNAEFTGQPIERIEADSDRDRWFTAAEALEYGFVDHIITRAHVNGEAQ
ClpP1P2, sequence (P9WPC3 whole entry): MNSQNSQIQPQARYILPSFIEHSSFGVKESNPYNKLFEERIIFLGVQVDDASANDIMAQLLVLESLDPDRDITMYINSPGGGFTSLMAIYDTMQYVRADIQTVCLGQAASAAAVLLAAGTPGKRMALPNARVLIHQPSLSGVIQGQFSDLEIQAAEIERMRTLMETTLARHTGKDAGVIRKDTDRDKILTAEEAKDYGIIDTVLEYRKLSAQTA

Compound	IC50 [1] [µM]	Percent Effect (Schistosoma mansoni) [%]	also measured
CCn1nc(C)c2nc(C(C)C)nc(NCCCn3ccnc3)c21	> 50.1	–	–
Cc1cc(C(=O)NCc2ccco2)nn1C	> 50.1	–	–
CCCn1c(N2CCCCC2)nc2c(C)nn(C)c2c1=O	34.4	–	–
CC(C)CNC(=O)CSc1n[nH]c(-c2ccccn2)n1	> 50.1	–	–
CC(=O)c1cccc(OCC(=O)Nc2cc(C)on2)c1	> 50.1	–	–
Nc1nc2c(c(NCc3nccs3)n1)CCN(CC1CCCC1)CC2	7.85	–	–
CC(=O)Nc1ccc(S(=O)(=O)N2CCC(N)CC2)cc1	> 50.1	–	–
CC1CCN(CCNC(=O)Nc2ncnn2C)CC1	> 50.1	–	–
CS(=O)(=O)Nc1nn(Cc2ccc(F)cc2)cc1Br	> 50.1	–	–
Cc1nn(C)c(C)c1CNC(=O)c1cc(NC(=O)C2CC2)n(C)n1	> 50.1	–	–
CC(C)c1cc(CN(C)C(=O)C(C)N2CCc3ccccc3C2)no1 (configuration not stated)	> 50.1	–	–
O=C([C@@H]1CCO[C@@H]2CCN(CC3CC3)C[C@H]21)N1CCCCO1	> 50.1	–	–
NC1CCN(Cc2ccccc2)C1=O (configuration not stated)	> 50.1	–	–
Nc1c[nH]nc1C(=O)NCc1cccc(Cl)c1	> 50.1	–	–
CCCc1ccc2oc(C(=O)N3CCC(O)CC3)c(C)c2c1	> 50.1	–	–
NC(=O)C(Cc1ccccc1)NS(=O)(=O)Cc1ccccc1Cl (configuration not stated)	> 50.1	–	–
COc1cccc(CNCC2CCOC2)c1 (configuration not stated)	> 50.1	–	–
c1csc(-c2noc(C3CNC3)n2)c1	2.96	–	–
OCC1CCCN1c1cc(NCCc2c[nH]c3ccccc23)ncn1 (configuration not stated)	–	50.05	IC50 [2]: 21.4 µM; IC50 [3]: 12.9 µM

Compound	IC50 [1] [µM]	Percent Effect (Schistosoma mansoni) [%]	also measured
CN(CCc1cccs1)C1CCCN(Cc2noc(C3CC3)n2)C1 (configuration not stated)	–	-35.96	IC50 [2]: > 50.1 µM; IC50 [3]: > 50.1 µM
NS(=O)(=O)N1CCc2ccc(NC(=O)Cc3ccc(F)cc3)cc21	–	-30.69	IC50 (ClpP1P2): 27.5 µM
CCCc1nnsc1C(=O)NCC1CCN(c2ccccn2)CC1	–	-128.4	IC50 [2]: > 50.1 µM; IC50 [3]: 30.8 µM
O=C(CSc1nncs1)N1CCN(Cc2ccc(Cl)s2)CC1	–	-37.37	IC50 [2]: 48.2 µM; IC50 [3]: 41.1 µM
Brc1cc2c(cc1CN1CCC(N3CCCCC3)CC1)OCCO2	–	-13	IC50 [2]: 19.9 µM; IC50 [3]: > 50.1 µM
O=C(NC1CCCC1)N1CCCC(c2nccn2Cc2ccncc2)C1 (configuration not stated)	–	-2.761	IC50 [3]: > 50.1 µM
CN(Cc1nccs1)c1nc(-c2ccccn2)nc2c1CCNCC2	–	-21.71	pIC50 (Plasmodium falciparum): 6.065; IC50 (Plasmodium falciparum; Plasmodium falciparum): 0.882 µM
O=C(Nc1cccnc1)N1CCC(n2ccc(C(F)(F)F)n2)CC1	–	-86.87	IC50 [2]: 1.07 µM; IC50 [3]: > 50.1 µM
O=C(c1ccc(Br)o1)N1CCN(Cc2ccc(OC(F)(F)F)cc2)CC1	–	71.06	IC50 [2]: 27.8 µM; IC50 [3]: 40.6 µM
Cn1ncc2c(NCCC34CCCN3CCC4)nc(C3CCCC3)nc21	–	79	IC50 [2]: 42.3 µM; IC50 [3]: 26.8 µM
CC(C)C1CN(c2ncc(F)cn2)CCC(=O)N1Cc1ccc(F)cc1 (configuration not stated)	–	75.74	–
Cc1noc(C)c1CCC(=O)N1CCN(CCn2cncn2)CC1	–	-8.408	–
COc1ccc(CNCCc2cc(F)cc3c2OCOC3)cc1O	–	-21.14	–
CCn1c(N)nc2cc(C(=O)NCCc3sccc3C)cnc21	–	-77.79	–
CCOc1ccc(CN(C)C(=O)NC(C)c2nncn2C)cc1 (configuration not stated)	–	-46.5	–
Cc1ccc(F)c(C(=O)N2CCN(S(C)(=O)=O)[C@@H](C)C2)c1	–	-35.69	–
Cc1nccc(N2CCC(=O)N(Cc3ccc(F)cc3)C(C(C)C)C2)n1 (configuration not stated)	–	-22.84	–
O=C(CCc1ccsc1)N1CCC(Cc2ccc(CO)cc2)C1 (configuration not stated)	–	6.677	–
COc1cccc(S(=O)(=O)NC2CNC(=O)C2)c1 (configuration not stated)	–	-3.901	–

Compound	IC50 [1] [µM]	Percent Effect (Schistosoma mansoni) [%]	also measured
CCC1CN(Cc2ccccc2)CCN1Cc1nnc(C2CCC2)o1 (configuration not stated)	–	44.59	–
O=C(NCC(Cc1cccc(F)c1)N1CCCC1=O)c1ccccc1 (configuration not stated)	–	-23.79	–
Cc1cc(C[C@@H]2COC[C@@H]2NC(=O)Cn2c(=O)oc3ccccc32)on1	–	-26.12	–
CN(C)CCN(Cc1ccc(Cl)cc1)C(=O)c1cc[nH]n1	–	46.97	–
Cc1cnn(CC2CCCN2Cc2coc(-c3ccccc3)n2)c1 (configuration not stated)	–	-1.507	IC50 [2]: 22.6 µM; IC50 [3]: > 50.1 µM
CCc1nc(CN2CCCN(Cc3cnn(C)c3)CC2)no1	–	-82.4	–
COCc1ccccc1C(=O)NCCCN1CCCC1C(=O)N(C)C (configuration not stated)	–	-41.89	–
Cn1ncc2c(N3CCN(C(N)=O)CC3)nc(C3CCCC3)nc21	–	-18.38	–
Cc1c(Br)cccc1C(=O)NC(C)CN1CCCC1=O (configuration not stated)	–	-4.935	–
COc1ccc(C2CCCN2S(=O)(=O)N(C)CC(C)C)cc1 (configuration not stated)	–	29.94	IC50 [2]: 31.2 µM; IC50 [3]: 13.2 µM
O=C(c1ccccn1)N1CCCC(c2nccn2Cc2ccncc2)C1 (configuration not stated)	–	-73.06	–
Cc1cc(N(C)Cc2cc(C)on2)n2nc(C)c(C)c2n1	–	-4.677	IC50 [2]: 13.5 µM; IC50 [3]: 33.7 µM
Cc1occc1C(=O)Nc1ccnc(OC2CCOC2)c1 (configuration not stated)	–	-74.39	–
Cc1cnn(CC2CN(CCc3ccncc3)CCO2)c1 (configuration not stated)	–	-83.94	–
CCS(=O)(=O)N(C)c1ccc(C(=O)N2CCCC(C)C2)cc1 (configuration not stated)	–	-22.28	–
COC(=O)c1cc(OCC2CCC2)cc(C(=O)N[C@@H]2CNCC[C@H]2O)c1	–	-27.72	–
CCN(CCn1cccn1)Cc1nc(-c2cccs2)oc1C	–	-16.9	–
COc1ccccc1NC(=O)NCC(O)(c1ccccc1)C1CC1 (configuration not stated)	–	57.61	–
